{"source": "patent US20230346893A1", "about": "“Methods and Compositions for Preventing or Minimizing Epithelial-Mesenchymal Transition” (Innovon Pharmaceuticals Inc., priority 2016, published 2023)", "key": {"[1]": {"system": "HK-2 cells", "test": "TGF-β-induced collagen 1 mRNA expression (EMT marker) in HK-2 cells, quantitative real-time PCR", "format": "cell-based, human"}, "[2]": {"system": "HK-2 cells", "test": "TGF-β-induced collagen 1 mRNA expression (EMT marker) in HK-2 cells, quantitative real-time PCR", "format": "cell-based, human", "settings": "for Effect on expression of collagen in TGF-β-induced HK-2 cells (in words): alone or formulated with albumin, concentrations of Table 1; for Changes in collagen mRNA expression (relative to TGF-β-treated cells): fatty acid concentration 5.0 × 10^−4M, TGF-β 10 ng/ml", "protocol": "HSA was dissolved in PBS to obtain a concentration of 6.6% (6.6 g/100 ml), and was filtered using a 0.2 μm filter. 75 μl of sodium octanoate or sodium decanoate 10 mM was mixed with 75 μl of HSA 6.6% (without vortex), and incubated 10 min at room temperature. 100 μL of this mixture was used in the assay of Example 4 in a final volume of 1 ml (dilution 1:10).\nAnalysis was undertaken to determine the effect of various compositions on TGF-β-induced collagen 1 expression, which is a marker of EMT, on immortalized human proximal tubule epithelial cells (HK-2 cells). HK-2 cells were treated with TGF-β (an inducer of EMT) at a concentration of 10 ng/ml. Expression of the EMT marker collagen 1 mRNA was determined by quantitative real-time PCR.\n(§1) Real-Time PCR was using human TaqMan Gene Expression Assay normalized to human GAPDH endogenous control. Reference is TGF-β1 control (RQ=1). The * and ** mean a p value of 0.05 and 0.01 respectively, compared to reference. Tested concentration of the mixture of sodium octanoate and sodium decanoate is 500 μM. The number of experiments is 3 (n=3)."}, "[3]": {"system": "human microvascular endothelial cells (HMEC)", "test": "Collagen 1a1 mRNA expression (EndoMT/EMT marker) in TGF-β induced HMEC", "format": "cell-based", "settings": "500 μM; both in presence of albumin (With HSA) or absence of albumin (No HSA); n=3", "protocol": "Endothelial to mesenchymal transition (EndoMT), which is included in the definition of the expression EMT as used in the present description, can be induced by transforming growth factor (TGF-β). […] Real-Time PCR was using human TaqMan Gene Expression Assay normalized to human GAPDH endogenous control. Reference is TGF-β1 control (RQ=1). The ** and *** mean a p value of 0.01 and 0.001 respectively, compared to reference. Tested concentration of sodium octanoate and sodium decanoate is 500 μM. The number of experiments is 3 (n=3)."}, "[4]": {"system": "PC-3 cells", "test": "Scratch assay, migration/invasion of mitomycin-treated EGF-induced PC-3 cells", "format": "cell-based, human", "settings": "EGF 50 ng/mL + Mitomycin C 10 μg/mL, 24 h; for EGF-induced PC-3 migration or invasion (FIG. 7, in words): with and without albumin", "description": "The present experiment exemplifies EMT analysis of cancer cells through invasion/migration of PC-3 cell in a “scratch assay”. This assay is based on the observation that, upon creation of a new artificial gap, so called ‘scratch’, on a confluent cell monolayer, the cells on the edge of the newly created gap will move toward the opening to close the scratch. EGF ([…]) was used to induce the migratory/invasion of PC-3 cells into the scratch. Briefly, culture-inserts are placed in a 24-well cell culture plate. PC-3 cells are seeded in culture-inserts and are incubated overnight at 37° C. in a CO2 incubator. Cells are then starved with serum-free medium for another 24 hours. The insert is removed, leaving a visible 500 μm cell-free gap. Cells were treated for 24 h with EGF at 50 ng/mL and Mitomycin C at 10 μg/mL (Mito+EGF) and with a pro-EMT agent, sodium octanoate (Mito+EGF+sodium octanoate) or an anti-EMT agent, sodium decanoate (Mito+EGF+sodium decanoate), with HSA (second row in FIG. 7) and without HSA (first row in FIG. 7). Pictures are taken at 1 h post-treatment as a confluence control for each group. After 24 h, cells are fixed with Crystal Violet staining and air dried before 24 h post treatment pictures are taken."}, "[5]": {"system": "human hepatocellular carcinoma cell line HepG2", "test": "Collagen 1a1 mRNA expression (EMT marker) in TGF-β induced HepG2", "format": "cell-based", "settings": "500 μM; both in presence of albumin (With HSA) or absence of albumin (No HSA); n=3", "protocol": "as §1, with “*, **” for “*”, “****” for “**”, “0.05, 0.01” for “0.05”, “0.0001” for “0.01”, “concentration” for “concentration of the mixture”"}, "[6]": {"system": "human lung epithelial cell A549", "test": "Collagen 1a1 mRNA expression (EMT marker) in TGF-β induced A549", "format": "cell-based", "settings": "500 μM; both in presence of albumin (With HSA) or absence of albumin (No HSA); n=3", "protocol": "as §1, with “***” for “*”, “****” for “**”, “0.001” for “0.05”, “0.0001” for “0.01”, “concentration” for “concentration of the mixture”"}, "[7]": {"settings": "fatty acid concentration 2.5 × 10^−4M, TGF-β 10 ng/ml"}}}
{"smiles": "CCCCCCCCCC(=O)O", "note": "[Decanoic Acid]", "values": [{"measurement": "Changes in collagen mRNA expression (relative to TGF-β-treated cells)", "setting": "[1]; fatty acid concentration 5.8 × 10^−7M, TGF-β 10 ng/ml", "result": "105.4% of decrease"}]}
{"smiles": "CCCCCCCCC(=O)O", "note": "[Nonanoic Acid]", "values": [{"measurement": "Changes in collagen mRNA expression (relative to TGF-β-treated cells)", "setting": "[1]; fatty acid concentration 6.3 × 10^−7M, TGF-β 10 ng/ml", "result": "51.4% of decrease"}, {"measurement": "Effect on expression of collagen in TGF-β-induced HK-2 cells (in words)", "setting": "[2]", "result": "inhibited the expression of collagen"}]}
{"smiles": "CCCCCCCCCC(=O)[O-].[Na+]", "note": "[Sodium Decanoate]", "values": [{"measurement": "Mesenchymal transition induced by TGF-β (collagen 1a1 mRNA expression, FIG. 4, in words)", "setting": "[3]", "result": "reduced significantly the mesenchymal transition"}, {"measurement": "Changes in collagen mRNA expression (relative to TGF-β-treated cells)", "setting": "[1]; [7]", "result": "66.6% of decrease"}, {"measurement": "Effect on expression of collagen in TGF-β-induced HK-2 cells (in words)", "setting": "[2]", "result": "decrease (or inhibit) the expression of collagen"}, {"measurement": "Changes in collagen mRNA expression (relative to TGF-β-treated cells)", "setting": "[2]", "result": "103.4% of decrease"}, {"measurement": "EGF-induced PC-3 migration or invasion (FIG. 7, in words)", "setting": "[4]", "result": "inhibition of the EGF-induced PC-3 migration or invasion"}, {"measurement": "Mesenchymal transition induced by TGF-β (collagen 1a1 mRNA expression, FIG. 5, in words)", "setting": "[5]", "result": "reduced significantly the mesenchymal transition"}, {"measurement": "Mesenchymal transition induced by TGF-β (collagen 1a1 mRNA expression, FIG. 6, in words)", "setting": "[6]", "result": "reduced significantly the mesenchymal transition"}]}
{"smiles": "CCCCCCCCCCCC(=O)[O-].[Na+]", "note": "[Sodium Laurate]", "values": [{"measurement": "Changes in collagen mRNA expression (relative to TGF-β-treated cells)", "setting": "[1]; fatty acid concentration 1.0 × 10^−4M, TGF-β 10 ng/ml", "result": "113.7% of decrease"}, {"measurement": "Effect on expression of collagen in TGF-β-induced HK-2 cells (in words)", "setting": "[2]", "result": "inhibited the expression of collagen"}]}
{"smiles": "CCCCCCCC(=O)[O-].[Na+]", "note": "[Sodium Octanoate, reference compound]", "values": [{"measurement": "Mesenchymal transition induced by TGF-β (collagen 1a1 mRNA expression, FIG. 4, in words)", "setting": "[3]", "result": "contrarily"}, {"measurement": "Changes in collagen mRNA expression (relative to TGF-β-treated cells)", "setting": "[1]; [7]", "result": "42.2% of increase"}, {"measurement": "Effect on expression of collagen in TGF-β-induced HK-2 cells (in words)", "setting": "[2]", "result": "expression of collagen was increased (or stimulated)"}, {"measurement": "Changes in collagen mRNA expression (relative to TGF-β-treated cells)", "setting": "[2]", "result": "24.1% of increase"}, {"measurement": "EGF-induced PC-3 migration (FIG. 7, in words)", "setting": "[4]; combined with albumin", "result": "migration is increased"}, {"measurement": "EGF-induced PC-3 migration or invasion (FIG. 7, in words)", "setting": "[4]", "result": "does not inhibit the cell migration"}, {"measurement": "Mesenchymal transition induced by TGF-β (collagen 1a1 mRNA expression, FIG. 5, in words)", "setting": "[5]", "result": "contrarily"}, {"measurement": "Mesenchymal transition induced by TGF-β (collagen 1a1 mRNA expression, FIG. 6, in words)", "setting": "[6]", "result": "no significant results"}]}
{"smiles": "CCCCCCCCCC(=O)OCC(COC(=O)CCCCCCCCC)OC(=O)CCCCCCCCC", "note": "[Tricaprin]", "values": [{"measurement": "Changes in collagen mRNA expression (relative to TGF-β-treated cells)", "setting": "[1]; triglyceride concentration 5%", "result": "120.4% of decrease"}]}
{"smiles": "CCCCCCCCCCCC(=O)OCC(COC(=O)CCCCCCCCCCC)OC(=O)CCCCCCCCCCC", "note": "[Trilaurin]", "values": [{"measurement": "Changes in collagen mRNA expression (relative to TGF-β-treated cells)", "setting": "[1]; triglyceride concentration 5%", "result": "84.6% of decrease"}]}
{"smiles": "CCCCCCCCCCCCCC(=O)OCC(COC(=O)CCCCCCCCCCCCC)OC(=O)CCCCCCCCCCCCC", "note": "[Trimyristin]", "values": [{"measurement": "Changes in collagen mRNA expression (relative to TGF-β-treated cells)", "setting": "[1]; triglyceride concentration 5%", "result": "52.3% of decrease"}]}
{"smiles": "CCCCCCCCCCC(=O)O", "note": "[Undecanoic Acid]", "values": [{"measurement": "Changes in collagen mRNA expression (relative to TGF-β-treated cells)", "setting": "[1]; fatty acid concentration 2.7 × 10^−7M, TGF-β 10 ng/ml", "result": "120.95% of decrease"}, {"measurement": "Effect on expression of collagen in TGF-β-induced HK-2 cells (in words)", "setting": "[2]", "result": "inhibited the expression of collagen"}]}
